Calls of active or inactive are those of the source. The rule behind the calls is not given here.
Tests used:
Assay type in all cases: functional, cell-based
[1] = tested on: HeLa; assay: Cytotoxicity against human HeLa cells assessed as reduction in cell viability after 72 hrs by WST8 assay
[2] = tested on: HeLa; assay: Induction of apoptosis in human HeLa cells assessed as nuclear fragmentation at 25 uM after 72 hrs by acridine orange/Hoechst 33342 staining based microscopic method
[3] = tested on: HeLa; assay: Induction of apoptosis in human HeLa cells assessed as loss of cytoplasmic and nuclear integrity at 25 uM after 72 hrs by acridine orange/Hoechst 33342 staining based microscopic method

SMILES | IC50 [1] | Activity [2] | Activity [3]
O=c1[nH]cc(F)c(=O)[nH]1 [FLUOROURACIL] | 13.9 µM | – | –
COC(=O)/C=C\c1cc(OC)c2c(c1)[C@@H](CO)[C@@H](c1ccc(O)c(OC)c1)O2 | 32.5 µM | – | –
COC(=O)/C=C/c1cc(OC)c2c(c1)[C@@H](CO)[C@H](c1ccc(O)c(OC)c1)O2 | 21 µM | Active | Active
COC(=O)/C=C\c1cc(OC)c2c(c1)[C@H](CO)[C@H](c1ccc(O)c(OC)c1)O2 | 103 µM | – | –
COC(=O)/C=C/c1cc(OC)c2c(c1)[C@H](CO)[C@H](c1ccc(O)c(OC)c1)O2 | 96.1 µM | – | –
COC(=O)/C=C/c1cc(OC)c2c(c1)[C@H](CO)[C@@H](c1ccc(O)c(OC)c1)O2 | 90 µM | – | –
COC(=O)/C=C/c1cc(OC)c2c(c1)[C@@H](CO)[C@@H](c1ccc(O)c(OC)c1)O2 | 105 µM | – | –
COC(=O)/C=C\c1cc(OC)c2c(c1)[C@H](CO)[C@@H](c1ccc(O)c(OC)c1)O2 | 78.8 µM | – | –
COC(=O)/C=C\c1cc(OC)c2c(c1)[C@@H](CO)[C@H](c1ccc(O)c(OC)c1)O2 | 87.3 µM | – | –

Reference: ChEMBL document CHEMBL4118050, “Gardenifolins A-H, Scalemic Neolignans from Gardenia ternifolia: Chiral Resolution, Configurational Assignment, and Cytotoxic Activities against the HeLa Cancer Cell Line” (J Nat Prod, 2017)
